Assay results taken from patent publication US12329733B2, “Acetyl-leucine or a pharmaceutically acceptable salt thereof for improved mobility and cognitive function” (INTRABIO LTD., priority 2016, dated 2025).

Key:
vertigo = conditions: clinical results reported by various authors; cited from earlier work
[1] = test system: patients with gait disorder; assay: quantitative gait analysis (“gait-rite”, video); type: in vivo, human
[2] = test system: patients with Niemann-Pick type C; conditions: 12 patients, ref (7); cited from earlier work
[3] = test system: subject suffering from imbalance and gait disorder; assay: home setting “get up and go test”; type: in vivo, human; conditions: Example 1: person, 4.5 g/day
Experimental: “Mobility” refers to the ability of a subject to move. Mobility may be assessed in the elderly using one or more simple tests. As illustrated in the Examples, the “get up and go” test is a simple test capable of measuring mobility. In this test, the speed of sit to stand and walking to a target point is analysed, suitably as described in the Examples. For example, the test may begin with the subject sitting in a chair. At the start of the stop clock, the subject should rise unaided and walk to a target point. The target point may be 2-10 m away, optionally 4-6 m away. The stop clock should be stopped upon the subject reaching the target point. Any change in mobility, for example, over time or through treatment, can be monitored by using the “get up and go” test at two or more time points and comparing the results, again as illustrated in the Examples. Other suitable tests for measuring mobility include those used in the Elderly Mobility Scale (EMS), a 20-point validated assessment tool for the assessment of frail elderly subjects (9), considering locomotion, balance and key position changes. The ability of the subject to move was measured in a home setting “get up and go test”. This test involved the subject rising unaided from their chair and walking the length of their living area to their kitchen. […]

[4] = test system: subjects with no apparent dysfunction in cognitive ability or movement/balance; assay: balancing ability (eyes closed, non-dominant foot lifted, timed); type: in vivo, human
Experimental: Due to reported improvement in balance on treatment we measured balancing ability at the end of the treatment period and at the end of the washout period. This assessment required the subject to close their eyes and lift their non-dominant foot around 6 inches off the ground. The subject was then timed to see how long they could remain upright and without significant wobbles. This was repeated three times, and the values averaged. […] This assessment required the subject to close their eyes and lift their non-dominant foot around 6 inches off the ground. The subject was then timed to see how long they could remain upright and without significant wobbles. This was repeated three times, and the values averaged. We measured balancing ability at the end of the treatment period and at the end of the washout period. This assessment required the subject to close their eyes and lift their non-dominant foot around 6 inches off the ground. The subject was then timed to see how long they could remain upright and without significant wobbles. This was repeated three times, and the values averaged.

[5] = test system: patient with postural imbalance; assay: timed 8-meter-walking test; type: in vivo, human; conditions: Example 6: 5 g/day for 1 month; baseline 6.5 sec
Excerpt: (§1) Baseline (prior to commencement of treatment): Maximal distance to walk until the patient could not walk anymore because of fatigue was 1 km. The […] up-and-go test yielded 25.4 sec. SARA yielded 6.5/40. […] Tandem stance and gait was not possible to perform due to an increased fall risk. Mean timed 8-meter-walking test was 6.5 sec.

[6] = test system: patient with postural imbalance; assay: timed Up and Go test (stance up-and-go test); type: in vivo, human; conditions: Example 6: 5 g/day for 1 month; baseline 25.4 sec
Excerpt: (§2) The patient was examined clinically by means of the following clinical assessments: maximal distance to walk; timed Up and Go test; Scale for the Assessment and Rating of Ataxia (SARA).

[7] = test system: patients with cerebellar ataxia of different etiologies; conditions: in responders, ref (8); cited from earlier work
[8] = test system: subjects (cognitive function); assay: subject and family reports of cognitive function and alertness; type: in vivo, human; conditions: for Details on Subjective Improvement / Subjective Improvement on treatment?: 5 g/day
Excerpt: “Cognitive function” can mean any mental process that involves a symbolic operation, for example, perception, memory, creation of imagery, awareness, reasoning, thinking and capacity for judgment. Measures of cognitive functioning include assessment tools designed to measure, for example: (a) general intelligence, (b) nonverbal intelligence, (c) achievement, (d) attention/executive functioning, (e) memory and learning, (f) visual-motor and motor functioning and (g) language. Such assessment tools are well-known in the art and include, for example, Wechsler Adult Intelligence Scale and Woodcock-Johnson III Tests of Cognitive Abilities (both for assessing general intelligence), Raven Progressive Matrices (for assessing nonverbal intelligence), Wide Range Achievement Test and Woodcock-Johnson III Tests of Achievement (for assessing academic achievement), Conners' Continuous Performance Test II (for assessing attention/executive functioning), Wide Range Assessment of Memory and Learning (for assessing memory and learning), Bender Visual-Motor Gestalt Test, Halstead-Reitan Grip Strength Test, Halstead-Reitan Finger Tapping Test and Lafayette Grooved Pegboard Task (all for assessing visual-motor and motor functioning) and Peabody Picture Vocabulary Test (for assessing language).

[9] = test system: patient with postural imbalance; assay: maximal distance to walk; type: in vivo, human; conditions: Example 6: person; 5 g/day (2/1.5/1.5 g) for 1 month; baseline 1 km
Excerpt: as §2, §1

[10] = Example 1: person, 4.5 g/day, after 2-3 weeks of treatment

## CC(=O)NC(CC(C)C)C(=O)O (racemic) [acetyl-DL-leucine]
vertigo
  cases with improvement in vertigo symptomology: more than 95%
[1]; Example 4: 3 weeks after beginning treatment
  video analysis of gait: now even able to run
[1]; Example 4: after 3 weeks' treatment, before treatment 1.6
  Coefficient of variation (CV) of stride time: CV = (standard deviation/mean) × 100: 1.8
[1]; Example 4: after 3 weeks' treatment, before treatment 9.3
  Spreading width (distance between the heel center of one footprint to the line of movement of the other foot): 8.1 cm
[1]; Example 4: after 3 weeks' treatment, before treatment 27.2
  % of the time of two periods in the gait cycle in which both feet at the same time are in contact with the ground: 25.5%
[1]; Example 4: after 3 weeks' treatment, before treatment 92
  Cadence: 100 steps/minute
[1]; Example 4: after 3 weeks' treatment, before treatment 116
  Step cycle length (distance between two consecutive contacts of a foot on the ground): 116 cm
[1]; Example 4: after 3 weeks' treatment, before treatment 141
  Maximum walking speed (maximal gait velocity): 157 cm/s
[1]; Example 4: person, after 3 weeks' treatment, before treatment 88
  Natural walking speed (self-chosen gait velocity): 96 cm/s
[1]; Example 5: Day 42, 3 gram per day, from 55 cm/sec at Day 0
  self-chosen gait velocity: 62 cm/s
[1]; Example 5: Day 42, 3 gram per day, from 84 cm/sec at Day 0
  maximal gait velocity: 130 cm/s
[2]
  ataxic symptoms: improvement in ataxic symptoms
[3]
  faster than pre-treatment in get up and go test: 25%
[3]; seven consecutive days once treatment had started, prior to treatment 40±3 seconds
  average time taken to rise unaided from chair and walk the length of living area to kitchen: 30 ± 2 s
[4]; Example 7: 66 M, end of washout period
  time able to remain balanced (average of 3 tests): 4.01 s
[4]; Example 7: 66 M, last day of treatment period
  time able to remain balanced (average of 3 tests): 7.27 s
[4]; Example 9: 55 F, end of washout period
  time able to remain balanced (average of 3 tests): 8 s
[4]; Example 9: 55 F, last day of treatment period
  time able to remain balanced (average of 3 tests): 12 s
[4]; Example 11: 53 M, end of washout period
  time able to remain balanced (average of 3 tests): 3.1 s
[4]; Example 11: 53 M, last day of treatment period
  time able to remain balanced (average of 3 tests): 7.9 s
[5]
  Mean timed 8-meter-walking test: 4.4 s
[6]
  stance up-and-go test: 21.2 s
[7]
  brain metabolism (PET): increased metabolism in the midbrain and lower brainstem
[8]; Example 1: after one-month course ceased
  cognition after ceasing treatment: gradually declined to their pre-treatment status over one month
[8]; [10]
  alertness on waking (subject's description): fully alert on waking
  cognitive function, spatial awareness and general demeanor (family): significant improvement in their cognitive function, spatial awareness and general demeanor
[8]; Example 1: remains on 4.5 g per day
  confusion evident prior to treatment: entirely absent
[8]; Example 6: 5 g/day for 1 month
  communication and executive function (family): executive function improved
  energy, agility (subjective): more energy, was more agile and interactive
[8]; Example 7: 66 M
  Details on Subjective Improvement: improvement in general alertness and a shortening of the time required to go from ‘asleep’ to ‘fully awake’
  Subjective Improvement on treatment?: Yes
[8]; Example 8: 29 M
  Details on Subjective Improvement: improvement in general alertness. They also reported a decrease in anxiety
  Subjective Improvement on treatment?: Yes
[8]; Example 9: 55 F
  Details on Subjective Improvement: shortening of the time required to go from ‘asleep’ to ‘fully awake’
  Subjective Improvement on treatment?: Yes
[8]; Example 10: […]
  Subjective Improvement on treatment?: no difference between on and off medication
[8]; Example 10: […], listed as acetyl-leucine
  Subjective Improvement on treatment?: No
[8]; Example 11: 53 M
  Details on Subjective Improvement: improvement in general alertness and a shortening of the time required to go from ‘asleep’ to ‘fully awake’
  Subjective Improvement on treatment?: Yes
[8]; Example 12: 48 F
  Details on Subjective Improvement: feeling less tired than usual and taking less time than was usual to go from asleep to fully awake
  Subjective Improvement on treatment?: Yes
[9]
  Maximal distance to walk: 1.5 km
